Source: the NIST ThermoML archive (doi:10.1016/j.fluid.2018.08.001)
± gives the expanded uncertainty stated by the source.

Settings: 303.15 K, 101.33 kPa, Liquid; for viscosity: Capillary tube (Ostwald / Ubbelohde) method; for speed of sound: Linear variable-path acoustic interferometer; for mass density: Pycnometric method

| SMILES | viscosity [mPa·s] | speed of sound [m/s] | mass density [kg/m3] |
| --- | --- | --- | --- |
| C1COCCO1 [1,4-dioxane] | 1.08 ± 0.04 | 1321 ± 1.9 | 1022.4 ± 1.1 |
| NCc1ccccc1 [benzylamine] | 1.43 ± 0.04 | 1538.2 ± 2.1 | 975.6 ± 1.1 |
| C1CCOC1 [tetrahydrofuran] | 0.46 ± 0.04 | 1252.2 ± 1.9 | 876.5 ± 1.1 |
| CCCCCC [hexane] | 0.36 ± 0.04 | 1051.2 ± 1.9 | 652.9 ± 1 |
